Biological target: Galectin-7 (Homo sapiens, UniProt P47929)
Assay: Binding affinity to human Gal-7 assessed as dissociation constant by fluorescence polarization assay

Galectin-7, sequence (P47929 whole entry): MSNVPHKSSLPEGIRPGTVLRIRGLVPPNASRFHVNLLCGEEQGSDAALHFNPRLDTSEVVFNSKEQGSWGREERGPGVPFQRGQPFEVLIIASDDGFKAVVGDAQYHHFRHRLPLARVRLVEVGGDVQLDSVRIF

Kd [µM] | SMILES
240 | COP(=O)(O)O[C@@H]1[C@@H](NC(=O)c2ccc(C)cc2)[C@@H](O)[C@@H](CO)O[C@H]1SC
450 | CS[C@@H]1O[C@H](CO)[C@H](O)[C@H](NC(=O)c2ccc(C)cc2)[C@H]1OP(=O)(O)OCc1ccccc1

Reference: ChEMBL document CHEMBL5104122, “Synthesis and application of phosphorylated saccharides in researching carbohydrate-based drugs” (Bioorg Med Chem, 2022)
